# Data reported in US20140271734A1, “BILE ACID RECYCLING INHIBITORS FOR TREATMENT OF BARRETT'S ESOPHAGUS AND GASTROESOPHAGEAL REFLUX DISEASE” (LUMENA PHARMACEUTICALS, INC., priority 2013, published 2014).
# Where two headings read alike, the source gives them in different places.
# Test: Toxicokinetics of LUM001 free form, 13-week oral capsule toxicity study in dogs
# Assay type: in vivo, Beagle dogs
# Design: AUC/Dose / Cmax/Dose: unit not given here
# Conditions: for Cmax / Tmax / AUC(0-t): Beagle, dog, plasma, oral; for AUC(0-t): read-out: AUC(0-24 h), mean
# Experimental: Six- to seven-month old Beagle dogs of body weights of 4.9-9.5 kg (4/sex/group) orally via capsules at 0, 5, 20 or 100 mg/kg for 13 consecutive weeks. Plasma levels of LUM001 (free form) were evaluated on Days 1 and 91. LUM001 was administered by once daily oral gelatin capsules. […] therefore, 105% of a stated dose is given to provide the appropriate amount of compound for dosing. On study Day 1 and Day 91, approximately 2 mL of venous blood was collected in heparinized tubes from the cephalic vein of each animal at 1, 2, 3, 5, 8, and 24 hours post-dose. Blood collection tubes were mixed and placed on ice during the collection period after which they were centrifuged and the plasma was harvested into cryotubes within approximately 60 minutes of blood collection. Plasma samples were stored at approximately −70° C. or lower until analyzed.
# The concentration of LUM001 free form in plasma were determined using an LCMSMS method. The assay sensitivity was 5.00 ng/mL for a […] sample.
# [1] = both sexes, 5 mg/kg, Day 1, 5 mg/kg, Comb
# [2] = both sexes, 5 mg/kg, Day 91, 5 mg/kg, Comb
# [3] = both sexes, 20 mg/kg, Day 1, 20 mg/kg, Comb
# [4] = both sexes, 20 mg/kg, Day 91, 20 mg/kg, Comb
# [5] = both sexes, 100 mg/kg, Day 1, 100 mg/kg, Comb
# [6] = both sexes, 100 mg/kg, Day 91, 100 mg/kg, Comb
# [7] = female, 5 mg/kg, Day 1, 5 mg/kg, F
# [8] = female, 20 mg/kg, Day 1, 20 mg/kg, F
# [9] = female, 20 mg/kg, Day 91, 20 mg/kg, F
# [10] = female, 100 mg/kg, Day 1, 100 mg/kg, F
# [11] = female, 100 mg/kg, Day 91, 100 mg/kg, F
# [12] = male, 5 mg/kg, Day 1, 5 mg/kg, M
# [13] = male, 5 mg/kg, Day 91, 5 mg/kg, M
# [14] = male, 20 mg/kg, Day 1, 20 mg/kg, M
# [15] = male, 20 mg/kg, Day 91, 20 mg/kg, M
# [16] = male, 100 mg/kg, Day 1, 100 mg/kg, M
# [17] = male, 100 mg/kg, Day 91, 100 mg/kg, M
smiles,measurement,setting,value
CCCCC1(CCCC)CS(=O)(=O)c2ccc(N(C)C)cc2[C@@H](c2ccc(OCc3ccc(C[N+]45CCN(CC4)CC5)cc3)cc2)[C@H]1O [LUM001],AUC/Dose,"Day 1, 5 mg/kg, Comb",3.55
same,BA,"Day 1, 5 mg/kg, Comb",0.1%
same,Cmax/Dose,"Day 1, 5 mg/kg, Comb",1.81
same,AUC/Dose,"Day 1, 5 mg/kg, F",4.17
same,BA,"Day 1, 5 mg/kg, F",<0.1%
same,Cmax/Dose,"Day 1, 5 mg/kg, F",1.87
same,AUC/Dose,"Day 1, 5 mg/kg, M",2.92
same,BA,"Day 1, 5 mg/kg, M",<0.1%
same,Cmax/Dose,"Day 1, 5 mg/kg, M",1.76
same,AUC/Dose,"Day 1, 20 mg/kg, Comb",3.63
same,BA,"Day 1, 20 mg/kg, Comb",0.1%
same,Cmax/Dose,"Day 1, 20 mg/kg, Comb",1.25
same,AUC/Dose,"Day 1, 20 mg/kg, F",2.43
same,BA,"Day 1, 20 mg/kg, F",<0.1%
same,Cmax/Dose,"Day 1, 20 mg/kg, F",1.27
same,AUC/Dose,"Day 1, 20 mg/kg, M",4.84
same,BA,"Day 1, 20 mg/kg, M",<0.1%
same,Cmax/Dose,"Day 1, 20 mg/kg, M",1.24
same,AUC/Dose,"Day 1, 100 mg/kg, Comb",2.39
same,BA,"Day 1, 100 mg/kg, Comb",<0.1%
same,Cmax/Dose,"Day 1, 100 mg/kg, Comb",0.907
same,AUC/Dose,"Day 1, 100 mg/kg, F",3.44
same,BA,"Day 1, 100 mg/kg, F",<0.1%
same,Cmax/Dose,"Day 1, 100 mg/kg, F",1.17
same,AUC/Dose,"Day 1, 100 mg/kg, M",1.34
same,BA,"Day 1, 100 mg/kg, M",<0.1%
same,Cmax/Dose,"Day 1, 100 mg/kg, M",0.648
same,AUC/Dose,"Day 91, 5 mg/kg, Comb",0.350
same,BA,"Day 91, 5 mg/kg, Comb",<0.1%
same,Cmax/Dose,"Day 91, 5 mg/kg, Comb",0.350
same,AUC/Dose,"Day 91, 5 mg/kg, F",0.00
same,BA,"Day 91, 5 mg/kg, F",<0.1%
same,Cmax/Dose,"Day 91, 5 mg/kg, F",0.00
same,AUC/Dose,"Day 91, 5 mg/kg, M",0.700
same,BA,"Day 91, 5 mg/kg, M",<0.1%
same,Cmax/Dose,"Day 91, 5 mg/kg, M",0.700
same,AUC/Dose,"Day 91, 20 mg/kg, Comb",2.54
same,BA,"Day 91, 20 mg/kg, Comb",0.1%
same,Cmax/Dose,"Day 91, 20 mg/kg, Comb",1.19
same,AUC/Dose,"Day 91, 20 mg/kg, F",2.70
same,BA,"Day 91, 20 mg/kg, F",<0.1%
same,Cmax/Dose,"Day 91, 20 mg/kg, F",1.25
same,AUC/Dose,"Day 91, 20 mg/kg, M",2.38
same,BA,"Day 91, 20 mg/kg, M",<0.1%
same,Cmax/Dose,"Day 91, 20 mg/kg, M",1.13
same,AUC/Dose,"Day 91, 100 mg/kg, Comb",5.03
same,BA,"Day 91, 100 mg/kg, Comb",0.2%
same,Cmax/Dose,"Day 91, 100 mg/kg, Comb",1.40
same,AUC/Dose,"Day 91, 100 mg/kg, F",6.01
same,BA,"Day 91, 100 mg/kg, F",<0.1%
same,Cmax/Dose,"Day 91, 100 mg/kg, F",1.82
same,AUC/Dose,"Day 91, 100 mg/kg, M",4.05
same,BA,"Day 91, 100 mg/kg, M",<0.1%
same,Cmax/Dose,"Day 91, 100 mg/kg, M",0.974
same,Cmax,[1],0.00907 µg/mL
same,Tmax,[1],1.5 h
same,AUC(0-t),[1],0.0177 µg·h/mL
same,Cmax,[2],0.00175 µg/mL
same,Tmax,[2],0.375 h
same,AUC(0-t),[2],0.00175 µg·h/mL
same,Cmax,[3],0.0251 µg/mL
same,Tmax,[3],2.13 h
same,AUC(0-t),[3],0.0726 µg·h/mL
same,Cmax,[4],0.0238 µg/mL
same,Tmax,[4],1.88 h
same,AUC(0-t),[4],0.0508 µg·h/mL
same,Cmax,[5],0.0907 µg/mL
same,Tmax,[5],1.38 h
same,AUC(0-t),[5],0.239 µg·h/mL
same,Cmax,[6],0.14 µg/mL
same,Tmax,[6],2 h
same,AUC(0-t),[6],0.503 µg·h/mL
same,Cmax,[7],0.00934 µg/mL
same,Tmax,[7],1.25 h
same,AUC(0-t),[7],0.0209 µg·h/mL
same,Tmax,"female, 5 mg/kg, Day 91, 5 mg/kg, F",0 h
same,Cmax,[8],0.0253 µg/mL
same,Tmax,[8],2 h
same,AUC(0-t),[8],0.0485 µg·h/mL
same,Cmax,[9],0.025 µg/mL
same,Tmax,[9],2 h
same,AUC(0-t),[9],0.0539 µg·h/mL
same,Cmax,[10],0.117 µg/mL
same,Tmax,[10],1.5 h
same,AUC(0-t),[10],0.344 µg·h/mL
same,Cmax,[11],0.182 µg/mL
same,Tmax,[11],1.75 h
same,AUC(0-t),[11],0.601 µg·h/mL
same,Cmax,[12],0.00879 µg/mL
same,Tmax,[12],1.75 h
same,AUC(0-t),[12],0.0146 µg·h/mL
same,Cmax,[13],0.0035 µg/mL
same,Tmax,[13],0.75 h
same,AUC(0-t),[13],0.0035 µg·h/mL
same,Cmax,[14],0.0248 µg/mL
same,Tmax,[14],2.25 h
same,AUC(0-t),[14],0.0967 µg·h/mL
same,Cmax,[15],0.0226 µg/mL
same,Tmax,[15],1.75 h
same,AUC(0-t),[15],0.0476 µg·h/mL
same,Cmax,[16],0.0648 µg/mL
same,Tmax,[16],1.25 h
same,AUC(0-t),[16],0.134 µg·h/mL
same,Cmax,[17],0.0974 µg/mL
same,Tmax,[17],2.25 h
same,AUC(0-t),[17],0.405 µg·h/mL
